Laboratory results taken from patent publication US9579406B2, “Phospholipid ether analogs as agents for detecting and locating cancer, and methods thereof” (Cellectar, Inc., priority 2004, dated 2017).
Entries after “also recorded” stand apart in the source; their conditions may differ.

Legend:
Format in all cases: in vivo
[1] = test system: xenograft and spontaneous tumor models; assay: Imaging and tissue distribution across preclinical animal tumor models
[2] = test system: SCC1 and SCC6 squamous cell tumors; assay: SCC1 and SCC6 xenografts in nude mice, single injection
Text: Due to its 60-day physical half-life and low energy 35 KeV photon emission, iodine-125 is suitable for imaging experiments in mice and rats. Iodine-125 also affords therapeutic characteristics. In one imaging experiment (FIG. 6), 2 nude mice were each inoculated with subcutaneous squamous cell lines SCC1 and SCC6 tumor cell implants on opposing flanks. SCC1 and SSC6 cells were used because one is radiosensitive relative to the other. After 14 days when the average tumor size was approaching 0.5 cm in diameter, one of the mice received 20 μCi of I-125-NM-404 and the other one receive unlabeled NM404 in an equal mass dose. The mouse receiving the unlabeled cold compound had to be euthanized 20 days after injection due to both tumors reaching the termination size limit as defined in the animal use protocol. […] This mouse never did reach terminal tumor size and the mouse was actually euthanized after 90 days in order to collect histology sections.

[3] = test system: A549 (human non-small cell lung cancer); assay: Radiotherapy study in A549 SCID mouse xenograft model
Experimental: Stimulated by these and other observations, the inventors recently conducted a small ^125I-NM404 pilot therapy study in SCID mice with human A549 lung tumor xenografts. ^125I-NM404 was administered as either a single dose or alternatively in 3 doses (once a week for 3 weeks) to groups of 6 mice and a separate cohort received an equivalent mass dose of unlabeled NM404 for comparison. Single doses were 50 or 500 μCi and the repeat dose group received a total of 3 weekly 50 μCi doses. Tumor growth was monitored for 10 weeks following final injection. […] New arms are now being initiated to cover the dose levels between the current ones in order to more accurately evaluate the therapeutic potential of this agent.
A549 (human non-small cell lung cancer, NSCLC, from ATCC) are maintained in Ham's F-12K media supplemented with 10% fetal bovine serum. […]. Animals are given free access to food and water, tumor growth and animal weight are monitored. […].
The tumor model used for this study was A549, a human non-small cell lung cancer, (NSCLC) obtained from ATCC (Manassas, Va.). The tumor cells are maintained in Ham's F-12K media supplemented with 10% fetal bovine serum. […]. Animals are given free access to food and water. Upon reaching 5-10 mm in tumor diameter, mice will be enrolled in the study.
A single intravenous injection of SF404A was performed at Day 0. For the control group, cold compound (C-NM404) has been injected. For treatment groups I-125-NM404 has been injected.
The study contained 5 groups; 4 treatment groups (n=6/group) and 1 control group (n=9). The iodine doses for the treatment groups were 50, 150, 250 and 500 μCi per mouse. The control group was dosed with an equivalent mass amount of C-NM404 (0 μCi).
Assessments were made until 10 weeks post-injection or until no animal in the control group is alive, whatever comes first. […]

[4] = Acute GLP toxicology, single iv dose, 14 days observation, rats
Experimental: Drug vehicle and drug product were provided to Dr. Kostyniak by Dr. Raymond Counsell of the University of Michigan for testing as described in the appended synopses of Study 27 and Study 28. […] This toxicology study was performed under GLP conditions.
This toxicology study was performed under GLP conditions.
The control and test rats were injected intravenously in the lateral tail vein. The rats were injected with the test or control article intravenously at 2 ml/kg of body weight using a 25 gauge needle and a 1-ml syringe. The injections were given by alternating rats from the control group with rats from the test group. The injections were given cautiously over a 30 second to one minute time interval. The injection to control rat #27-01 was given at 9:03 am and last injection to test rat #27-16 was given at 11:01 am.
The rats were observed by LAF personnel for signs of acute toxicity from the time of injection until […]. The rats were weighed five (5) times a week (Monday through Friday) and their body weights, recorded in […]. On Dec. […] A heart puncture was then performed using a 20 gauge needle and a 10 ml syringe to collect the blood samples for the hematological CBC and the clinical blood chemistries. The rats were exsanguinated to cause death. The thymus, heart, lungs, spleen, kidneys, liver, brain, and testes were collected, examined grossly, weighed and sectioned for pathology. The tissue samples (except thymus) were placed in jars of “Z-fix” fixative for histology.
Sixteen (16) Sprague-Dawley rats were received from Harlan-Sprague Dawley, Indianapolis, Ind. […] They were housed at the Laboratory Animal Facility and given food and water ad lib. Each rat was given a two-part number starting with 27 (the study number) and followed by a ‘unique’ number of ‘01’ to ‘16’ (numerical). Each rat was ear punched in the right ear with the unique number of ‘01’ to ‘16’. The control rats were numbered from #27-01 to #27-08 and the test rats were numbered from #27-09 to #27-16. The unique numbers were also applied to each cage indicating which rats were housed within that cage. There were four cages of control rats and four cages of test rats. […] The two groups of eight (8) rats were established by random assignment. The rats were weighed daily until the termination of the study on Day 14.
Safety: On Day 14, the blood samples for both groups will be analyzed for hematology and clinical chemistry. Additionally, the following organs will be removed for pathology report and histology slides: brain, lung, liver, heart, kidney, spleen, and testes. A compilation chart of organ weights with organ/weight ratios for each rat may be compiled.

[5] = male rats, 2 mg/ml at 2 ml/kg iv, 14 days
[6] = male rats, 2 mg/ml at 2 ml/kg iv, day 14

C[N+](C)(C)CCOP(=O)([O-])OCCCCCCCCCCCCCCCCCCc1ccc([125I])cc1 [Compound I-125-NM404]
time over which tumors could be imaged ([1]; mammary and prostate tumors in mice): > 60 days
period of prolonged tumor retention post-injection ([1]; mice): 20 to 60 days
tumor response ([2]; single injection 20 μCi, listed as 125I-NM404): regressed significantly; also recorded: regressed dramatically; also recorded: significantly reduced
dose relationship of effect on tumor volume ([3]; 50-500 μCi): dose-linear effect
average tumor volume ([3]; 50 μCi (n = 4), week 0): 198 mm^3
treatment effect on tumor volume ([3]; 50 μCi single injection, 10 weeks): did not show any difference to control animals
average tumor volume ([3]; 50 μCi, week 1): 599 mm^3
average tumor volume ([3]; 50 μCi, week 2): 691 mm^3
average tumor volume ([3]; 50 μCi, week 3): 987 mm^3
average tumor volume ([3]; 50 μCi, week 4): 2283 mm^3
average tumor volume ([3]; 50 μCi, week 5): 3977 mm^3
average tumor volume ([3]; 50 μCi, week 6): 4951 mm^3
average tumor volume ([3]; 50 μCi, week 7): 6999 mm^3
average tumor volume ([3]; 50 μCi, week 8): 8188 mm^3
average tumor volume ([3]; 50 μCi, week 9): 9978 mm^3
average tumor volume ([3]; 50 μCi, week 10): 8342 mm^3
tumor growth ([3]; 150 microCi, large tumors (>1 cm)): did not show any effects
tumor growth ([3]; 150 microCi, small tumors (<1 cm)): stunned tumor growth
average tumor volume ([3]; 150 μCi (n = 5), week 0): 1699 mm^3
average tumor volume ([3]; 150 μCi, week 1): 1847 mm^3
average tumor volume ([3]; 150 μCi, week 2): 2430 mm^3
average tumor volume ([3]; 150 μCi, week 3): 2758 mm^3
average tumor volume ([3]; 150 μCi, week 4): 4144 mm^3
average tumor volume ([3]; 150 μCi, week 5): 4478 mm^3
average tumor volume ([3]; 150 μCi, week 6): 4668 mm^3
average tumor volume ([3]; 150 μCi, week 7): 4817 mm^3
average tumor volume ([3]; 150 μCi, week 8): 6049 mm^3
average tumor volume ([3]; 150 μCi, week 9): 7780 mm^3
average tumor volume ([3]; 150 μCi, week 10): 6894 mm^3
average tumor volume ([3]; 250 μCi (n = 6), week 0): 360 mm^3
treatment effect on tumor volume ([3]; 250 μCi single injection): substantial and prolonged treatment effect
effect on the tumor ([3]; 250 μCi, 4 weeks following injection): causes central necrosis
average tumor volume ([3]; 250 μCi, week 2): 756 mm^3
average tumor volume ([3]; 250 μCi, week 3): 821 mm^3
average tumor volume ([3]; 500 μCi (n = 5), week 0): 1041 mm^3
signs of toxicity ([3]; 500 μCi dose): none of the mice showed any signs of toxicity
treatment effect on tumor volume ([3]; 500 μCi single injection): substantial and prolonged treatment effect
average tumor volume ([3]; 500 μCi, week 1): 964 mm^3
average tumor volume ([3]; 500 μCi, week 2): 1281 mm^3
average tumor volume ([3]; 500 μCi, week 3): 1110 mm^3
average tumor volume ([3]; 500 μCi, week 4): 1300 mm^3
average tumor volume ([3]; 500 μCi, week 5): 1626 mm^3
average tumor volume ([3]; 500 μCi, week 6): 1735 mm^3
average tumor volume ([3]; 500 μCi, week 7): 1697 mm^3
tumor growth ([3]; pilot study, single 500 μCi dose): significant regression in tumor growth

C[N+](C)(C)CCOP(=O)([O-])OCCCCCCCCCCCCCCCCCCc1ccc(I)cc1 [NM-404, 18-(4-iodophenyl)-octadecylphosphocholine]
uptake of injected dose into the tumor tissue ([1]; in vivo): 10-25%
localization in infectious / inflammatory sites ([1]; preclinical models): does not localize in infectious sites; also recorded: is not retained in inflammatory tissues
retention in normal, premalignant or hyperplastic tissues ([1]; preclinical models): is not retained in normal, premalignant, or hyperplastic tissues
time to euthanasia due to both tumors reaching termination size limit ([2]; unlabeled, equal mass dose): 20 days
effect on tumor growth ([3]; 0 μCi, equivalent mass dose, 10 weeks): no substantial effect on tumors growth
therapy effect of fractionated dosing versus single dose ([3]; 3×50 micro-Ci versus single 150 micro-Ci): produced the same therapy effect
average tumor volume ([3]; Control 0 μCi (n = 7), week 0): 1152 mm^3
average tumor volume ([3]; Control 0 μCi, week 1): 1289 mm^3
average tumor volume ([3]; Control 0 μCi, week 2): 1667 mm^3
average tumor volume ([3]; Control 0 μCi, week 3): 2418 mm^3
average tumor volume ([3]; Control 0 μCi, week 4): 3169 mm^3
average tumor volume ([3]; Control 0 μCi, week 5): 3763 mm^3
average tumor volume ([3]; Control 0 μCi, week 6): 4971 mm^3
average tumor volume ([3]; Control 0 μCi, week 7): 6207 mm^3
average tumor volume ([3]; Control 0 μCi, week 8): 6253 mm^3
average tumor volume ([3]; Control 0 μCi, week 9): 7175 mm^3
average tumor volume ([3]; Control 0 μCi, week 10): 7068 mm^3
acute toxicologic effects (conclusion) [4, 5]: No acute toxicologic effects attributable to the test article had been found
behavior [4, 5]: No unusual behavior was noted
mean body weights, test versus control group [4, 5]: not significantly different
tail vein injection site reactions [4, 5]: no adverse tissue reactions were noted
clinical blood chemistries and hematology, t-test versus control [4, 6]: no significant differences found
gross examination of tissues [4, 6]: No gross lesions were noted
histopathology of organs [4, 6]: no changes in the histopathology of the organs examined that can be attributed to the administration of the test material
toxic effects ([4]; male rats, 4 mg/kg (Study 27)): no significant toxic effects were noted
acute toxicity ([4]; unlabeled, 1200 times the anticipated imaging mass dose): no acute toxicities were found
